Laboratory results: patent US8912169B2, “Beta-lactamase inhibitors” (VenatoRx Pharmaceuticals, Inc., priority 2012, dated 2014)

Experiments:
Format in all cases: biochemical
VIM-2 = molecular target: T1, VIM-2 (Escherichia coli, UniProt Q5U7L7); assay: β-lactamase enzyme inhibition, VIM-2; details: substrate Nitrocefin 100 μM, 486 nm; read-out: Class B VIM-2 IC50
T1 construct: made in house; host or cells: E. coli BL21(DE3)
Protocol: For Vim-2 metallo β-lactamase, the procedure was identical with the following exceptions, first the protein was not pH adjusted to pH 5 with 50 mM sodium acetate, second, the chromatography step was changed to a 5 ml Q sepharose anion exchange column pre-equilibrated with 50 mM Hepes pH 7.5, and elution of the protein was achieved by a linear gradient of NaCl (0-600 mM). Finally, the VIM-2 purification required a second run (3rd step) on the Q sepharose anion exchange column to achieve acceptable purity (>90%).
(§1) An equal volume of diluted enzyme stock was added, and the plates were incubated at 37° C. for 15 min. Nitrocefin was used as substrate for p99 AmpC, VIM-2 and OXA-1 and dispensed into each well at a final concentration of 100 μM. Absorbance at 486 nm was immediately monitored for 10 min using a Biotek Powerwave XS2 microplate spectrophotometer using the GENS software package (Biotek Instruments, Winooski Vt.). In an analogous fashion, imipenem was used as substrate for Kpc-2 and Cefotaxime was used for SHV-5, while changes in absorbance upon hydrolysis of the β-lactam ring were monitored at 300 nm and 260 nm respectively in UV-transparent 96-well microtiter assay plates. Maximum rates of hydrolysis were compared to those in control wells (without inhibitors), and percentages of enzyme inhibition were calculated for each concentration of inhibitor. The concentration of inhibitor needed to reduce the initial rate of hydrolysis of substrate by 50% (IC50) was calculated as the residual activity of β-lactamase at 486 nm using GraFit version 7 kinetics software package (Erithacus Software, Surrey, UK).
(§2) Using the methodology described above, examples of the current invention were evaluated for their ability to inhibit β-lactamase enzymes from all four Ambler classifications (A through D). […] NT=Not tested.

KPC-2 = molecular target: T2, KPC-2 (Klebsiella pneumoniae, UniProt Q9F663); assay: β-lactamase enzyme inhibition, KPC-2; details: substrate imipenem, 300 nm; read-out: Class A KPC-2 IC50
T2 construct: made in house; host or cells: E. coli BL21(DE3)
Protocol: (§3) For SHV-5, Kpc-2, p99AmpC and OXA-1 β-lactamases, E. coli BL21(DE3) bacterial cells carrying expression plasmids (expressed as native untagged proteins) for the individual β-lactamases were grown in 1 L of Superbroth (Teknova Inc. Hollister, Calif.) supplemented with 100 μg/mlkanamycin selection and 1×5052 (0.5% glycerol, 0.05% glucose and 0.2% α-lactose) at 35° C. for 18-20 hours. Cells were harvested by centrifugation (4,000×g, 4° C., 20 min), resuspended in 50 ml of 10 mM HEPES pH 7.5 ( 1/20 of the initial volume). The cells were lysed by sonication (5 pulses of 45 seconds) at 45 W on ice. The lysates were clarified by centrifugation at 10,000×g for 40 minutes at 4° C. Samples were diluted 5-fold in 50 mM sodium acetate pH 5.0, stored overnight at 4° C., after which they were centrifuged at 10,000×g for 30 minutes to clarify, and filtered through 0.45 μm filters. The samples were loaded onto a 5 ml Capto S sepharose cation exchange column (GE Healthcare) pre-equilibrated with 50 mM sodium acetate pH 5.0. The column was washed with 5 column volumes of 50 mM sodium acetate pH 5.0 to wash out unbound protein and a linear gradient of NaCl (0 to 500 mM) was used to elute the protein (over 16 CV) from the column. Fractions were assayed for β-lactamase activity using Centa (Calbiochem, Gibbstown, N.J.) or Nitrocefin (EMD Millipore chemicals, Darmstadt, Germany) as a reporter β-lactamase substrate for activity in the isolated fractions. Active fractions were pooled, concentrated and further purified by gel filtration chromatography on a Superdex 75 prep grade gel filtration column (GE Healthcare, Piscataway, N.J.) pre-equilibrated in 50 mM Hepes pH 7.5, 150 mM NaCl. Active fractions were pooled concentrated, quantitated by BCA protein determination (Thermo Scientific, Rockford, Ill.), dialyzed into PBS and frozen at −80° C. in 20% glycerol until use.
as §1, §2

SHV-5 = molecular target: T3, SHV-5 (Klebsiella pneumoniae, UniProt P0A3M1); assay: β-lactamase enzyme inhibition, SHV-5
T3 construct: made in house; host or cells: E. coli BL21(DE3)
Protocol: as §3, §1, §2

p99 AmpC = molecular target: T4, p99 AmpC (Enterobacter cloacae, UniProt P05364); assay: β-lactamase enzyme inhibition, p99 AmpC
T4 construct: made in house; host or cells: E. coli BL21(DE3)
Protocol: as §3, §1, §2

OXA-1 = molecular target: T5, OXA-1 (Escherichia coli, UniProt P13661); assay: β-lactamase enzyme inhibition, OXA-1; details: substrate Nitrocefin 100 μM, 486 nm; read-out: Class D OXA-1 IC50
T5 construct: made in house; host or cells: E. coli BL21(DE3)
Protocol: as §3, §1, §2

N[C@H]1CC(CC(=O)N[C@H]2Cc3cccc(C(=O)O)c3OB2O)C[C@@H]1N [Example 37]
IC50 (VIM-2): 100 to 1000 nM
IC50 (KPC-2): < 100 nM
IC50 (SHV-5): 1000 to 10000 nM
IC50 (p99 AmpC): < 100 nM
IC50 (OXA-1): < 100 nM

CC(NC(=O)C1C[C@H](N)[C@@H](N)C1)C(=O)N[C@H]1Cc2cccc(C(=O)O)c2OB1O (stereo partly drawn) [Example 38]
IC50 (VIM-2): 100 to 1000 nM
IC50 (KPC-2): 100 to 1000 nM
IC50 (SHV-5): < 100 nM
IC50 (p99 AmpC): < 100 nM
IC50 (OXA-1): 100 to 1000 nM

O=C(C[C@H]1CC[C@H](NCc2nccs2)CC1)N[C@H]1Cc2cccc(C(=O)O)c2OB1O [Example 39]
IC50 (VIM-2): 1000 to 10000 nM
IC50 (KPC-2): < 100 nM
IC50 (SHV-5): < 100 nM
IC50 (p99 AmpC): < 100 nM
IC50 (OXA-1): < 100 nM

O=C(CC1CCC(N2CCOCC2)CC1)N[C@H]1Cc2cccc(C(=O)O)c2OB1O (stereo partly drawn) [Example 40, (R)-2-hydroxy-3-(2-(4-morpholinocyclohexyl)acetamido)-3,4-dihydro-2H-benzo[e][1,2]oxaborinine-8-carboxylic acid]
IC50 (VIM-2): < 100 nM
IC50 (KPC-2): < 100 nM
IC50 (SHV-5): 100 to 1000 nM
IC50 (p99 AmpC): < 100 nM
IC50 (OXA-1): < 100 nM

N[C@@H](C(=O)N[C@H]1Cc2cccc(C(=O)O)c2OB1O)C1CCCCC1 [Example 42, (R)-3-((R)-2-amino-2-cyclohexylacetamido)-2-hydroxy-3,4-dihydro-2H-benzo[e][1,2]oxaborinine-8-carboxylic acid]
IC50 (VIM-2): 1000 to 10000 nM
IC50 (KPC-2): < 100 nM
IC50 (SHV-5): 100 to 1000 nM
IC50 (p99 AmpC): < 100 nM
IC50 (OXA-1): 100 to 1000 nM

NCCNC1CCC(O)(CC(=O)N[C@H]2Cc3cccc(C(=O)O)c3OB2O)CC1 (stereo partly drawn) [Example 43, 3-{2-[4-(2-Amino-ethylamino)-1-hydroxy-cyclohexyl]-acetylamino}-2-hydroxy-3,4-dihydro-2H-benzo[e][1,2]oxaborinine-8-carboxylic acid]
IC50 (VIM-2): < 100 nM
IC50 (KPC-2): < 100 nM
IC50 (SHV-5): < 100 nM
IC50 (p99 AmpC): < 100 nM
IC50 (OXA-1): < 100 nM

NC1CCC(O)(CC(=O)N[C@H]2Cc3cccc(C(=O)O)c3OB2O)CC1 (stereo partly drawn) [Example 44, 3-[2-(4-Amino-1-hydroxy-cyclohexyl)-acetylamino]-2-hydroxy-3,4-dihydro-2H-benzo[e][1,2]oxaborinine-8-carboxylic acid]
IC50 (VIM-2): 1000 to 10000 nM
IC50 (KPC-2): 100 to 1000 nM
IC50 (SHV-5): 100 to 1000 nM
IC50 (p99 AmpC): 100 to 1000 nM
IC50 (OXA-1): 100 to 1000 nM

N[C@H]1CC[C@H](NCC(=O)N[C@H]2Cc3cccc(C(=O)O)c3OB2O)CC1 [Example 45, 3-[2-(4-Amino-cyclohexylamino)-acetylamino]-2-hydroxy-3,4-dihydro-2H-benzo[e][1,2]oxaborinine-8-carboxylic acid]
IC50 (VIM-2): 1000 to 10000 nM
IC50 (KPC-2): < 100 nM
IC50 (SHV-5): < 100 nM
IC50 (p99 AmpC): < 100 nM
IC50 (OXA-1): 100 to 1000 nM

NCCN[C@H]1CC[C@@H](CC(=O)N[C@H]2Cc3cccc(C(=O)O)c3OB2O)CC1 [Example 46, (R)-3-(2-(cis-4-(2-aminoethylamino)cyclohexyl)acetamido)-2-hydroxy-3,4-dihydro-2H-benzo[e][1,2]oxaborinine-8-carboxylic acid]
IC50 (VIM-2): 100 to 1000 nM
IC50 (KPC-2): < 100 nM
IC50 (SHV-5): 100 to 1000 nM
IC50 (p99 AmpC): < 100 nM
IC50 (OXA-1): < 100 nM

O=C(C[C@H]1CC[C@H](NCCNc2ccccn2)CC1)N[C@H]1Cc2cccc(C(=O)O)c2OB1O [Example 48, (R)-2-hydroxy-3-(2-(trans-4-(2-(pyridin-2-ylamino)ethylamino)cyclohexyl)acetamido)-3,4-dihydro-2H-benzo[e][1,2]oxaborinine-8-carboxylic acid]
IC50 (VIM-2): 100 to 1000 nM
IC50 (KPC-2): < 100 nM
IC50 (SHV-5): < 100 nM
IC50 (p99 AmpC): < 100 nM
IC50 (OXA-1): < 100 nM

CS(=O)(=O)NCCN[C@H]1CC[C@H](CC(=O)N[C@H]2Cc3cccc(C(=O)O)c3OB2O)CC1 [Example 49, (R)-2-hydroxy-3-(2-(trans-4-(2-(methylsulfonamido)ethylamino)cyclohexyl)acetamido)-3,4-dihydro-2H-benzo[e][1,2]oxaborinine-8-carboxylic acid]
IC50 (VIM-2): 100 to 1000 nM
IC50 (KPC-2): < 100 nM
IC50 (SHV-5): < 100 nM
IC50 (p99 AmpC): < 100 nM
IC50 (OXA-1): < 100 nM

NCCN[C@H]1CC[C@H](CC(=O)N[C@@H]2Cc3cccc(C(=O)O)c3OB2O)CC1 [Example 50, (S)-3-(2-(trans-4-(2-aminoethylamino)cyclohexyl)acetamido)-2-hydroxy-3,4-dihydro-2H-benzo[e][1,2]oxaborinine-8-carboxylic acid]
IC50 (VIM-2): 100 to 1000 nM
IC50 (KPC-2): 100 to 1000 nM
IC50 (SHV-5): 100 to 1000 nM
IC50 (p99 AmpC): 100 to 1000 nM
IC50 (OXA-1): 100 to 1000 nM

CNCCN[C@H]1CC[C@H](CC(=O)N[C@H]2Cc3cccc(C(=O)O)c3OB2O)CC1 [Example 51, (R)-2-hydroxy-3-(2-(trans-4-(2-(methylamino)ethylamino)cyclohexyl)acetamido)-3,4-dihydro-2H-benzo[e][1,2]oxaborinine-8-carboxylic acid]
IC50 (VIM-2): < 100 nM
IC50 (KPC-2): < 100 nM
IC50 (SHV-5): < 100 nM
IC50 (p99 AmpC): < 100 nM
IC50 (OXA-1): < 100 nM

CN1CCN([C@H]2CC[C@H](CC(=O)N[C@H]3Cc4cccc(C(=O)O)c4OB3O)CC2)C1=N [Example 52, (R)-2-hydroxy-3-(2-(trans-4-(2-imino-3-methylimidazolidin-1-yl)cyclohexyl)acetamido)-3,4-dihydro-2H-benzo[e][1,2]oxaborinine-8-carboxylic acid]
IC50 (VIM-2): 10000 to 100000 nM
IC50 (KPC-2): < 100 nM
IC50 (SHV-5): < 100 nM
IC50 (p99 AmpC): < 100 nM
IC50 (OXA-1): < 100 nM

C[C@H](N)CN[C@H]1CC[C@H](CC(=O)N[C@H]2Cc3cccc(C(=O)O)c3OB2O)CC1 [Example 53, (R)-3-(2-(trans-4-((S)-2-aminopropylamino)cyclohexyl)acetamido)-2-hydroxy-3,4-dihydro-2H-benzo[e][1,2]oxaborinine-8-carboxylic acid]
IC50 (VIM-2): < 100 nM
IC50 (KPC-2): < 100 nM
IC50 (SHV-5): < 100 nM
IC50 (p99 AmpC): < 100 nM
IC50 (OXA-1): < 100 nM

COC(=O)NCCN[C@H]1CC[C@H](CC(=O)N[C@H]2Cc3cccc(C(=O)O)c3OB2O)CC1 [Example 54, (R)-2-hydroxy-3-(2-(trans-4-(2-(methoxycarbonylamino)ethylamino)cyclohexyl)acetamido)-3,4-dihydro-2H-benzo[e][1,2]oxaborinine-8-carboxylic acid]
IC50 (VIM-2): 100 to 1000 nM
IC50 (KPC-2): < 100 nM
IC50 (SHV-5): < 100 nM
IC50 (p99 AmpC): 100 to 1000 nM
IC50 (OXA-1): < 100 nM

NCCNC1CC(CC(=O)N[C@H]2Cc3cccc(C(=O)O)c3OB2O)C1 (stereo partly drawn) [Example 55, (R)-3-(2-(3-(2-aminoethylamino)cyclobutyl)acetamido)-2-hydroxy-3,4-dihydro-2H-benzo[e][1,2]oxaborinine-8-carboxylic acid]
IC50 (VIM-2): < 100 nM
IC50 (KPC-2): < 100 nM
IC50 (SHV-5): < 100 nM
IC50 (p99 AmpC): < 100 nM
IC50 (OXA-1): < 100 nM

NC1CC(CC(=O)N[C@H]2Cc3cccc(C(=O)O)c3OB2O)C1 (stereo partly drawn) [Example 56, (R)-3-(2-(3-aminocyclobutyl)acetamido)-2-hydroxy-3,4-dihydro-2H-benzo[e][1,2]oxaborinine-8-carboxylic acid]
IC50 (VIM-2): 100 to 1000 nM
IC50 (KPC-2): < 100 nM
IC50 (SHV-5): 100 to 1000 nM
IC50 (p99 AmpC): < 100 nM
IC50 (OXA-1): < 100 nM
